{"source": "patent US5519029A", "about": "“2-aminoalkyl-5-aminoalkylamino substituted-isoquinoindazole-6(2H)-ones” (Boehringer Mannheim Italia, S.p.A., priority 1993, dated 1996)", "key": {"[1]": {"system": "human colon adenocarcinoma cell line (Lovo)", "experiment": "MTT cytotoxicity assay, Lovo cell line", "assay_type": "cell-based", "conditions": "read-out: IC50 LOVO", "protocol": "(§1) The evaluation of the biological activity for the compounds of this invention was performed in vitro and in vivo following the protocols developed by the U.S. National Cancer Institute.\n(§2) The evaluation of the in vitro cytotoxic activity of the compounds of the invention was performed using a human colon adenocarcinoma cell line (Lovo) isolated from a metastatic nodule, and a subline expressing multidrug resistance. The subline is resistant to a number of antitumor agents, among which are doxorubicin, VP-16, and vincristine."}, "Lovo/DX [2]": {"system": "Lovo/DX", "experiment": "MTT cytotoxicity assay, multidrug-resistant subline Lovo/DX", "assay_type": "cell-based, human", "conditions": "for IC50: Homo sapiens, read-out: IC50 LOVO/DX; for RI (resistance index): ratio of the IC50 for the resistant line cell to the IC50 for the sensitive cell line; for cross resistance / resistance in Lovo/DX (in words): Lovo/DX subline", "protocol": "as §1, §2"}, "[3]": {"conditions": "dose limiting, phase I and phase II; cited from earlier work"}, "[4]": {"conditions": "rat; cited from earlier work"}, "Lovo/DX [5]": {"system": "Lovo/DX", "conditions": "characterisation of subline (Grandi et al. 1986); cited from earlier work"}, "[6]": {"system": "advanced breast cancer, acute leukemia and lymphoma", "conditions": "clinical trials; cited from earlier work"}, "[7]": {"conditions": "cited from earlier work; for cardiotoxicity in animals (in words): animal studies"}, "[8]": {"conditions": "mostly in patients previously treated with doxorubicin; cited from earlier work"}, "[9]": {"conditions": "i.p., non-tumor bearing rats, equieffective antitumor dosages; cited from earlier work"}, "[10]": {"conditions": "in vivo; cited from earlier work"}, "[11]": {"system": "cell histotypes developing resistance against doxorubicin mediated by overexpression of glycoprotein P", "conditions": "doxorubicin-resistant cells; cited from earlier work"}, "[12]": {"conditions": "Lovo (sensitive) cells, MTT assay"}, "[13]": {"conditions": "Lovo/DX (resistant) cells, MTT assay"}}, "note": "“Also recorded” adds a separate entry of the source. Like-named read-outs stand apart in the source and are kept apart here.", "data": [{"smiles": "CN(C)CCNc1ccc2c3c(nn2CCN)-c2cnccc2C(=O)c13", "values": [{"measurement": "IC50", "setting": "[1]; [12]", "result": 0.3, "unit": "µg/mL"}, {"measurement": "IC50", "setting": "Lovo/DX [2]; [13]", "result": 5, "unit": "µg/mL"}, {"measurement": "RI (resistance index)", "setting": "Lovo/DX [2]", "result": 16.7}]}, {"smiles": "CN(C)CCn1nc2c3c(c(NCCN)ccc31)C(=O)c1ccncc1-2", "values": [{"measurement": "IC50", "setting": "[1]; [12]", "result": 0.5, "unit": "µg/mL"}, {"measurement": "IC50", "setting": "Lovo/DX [2]; [13]", "result": 22.4, "unit": "µg/mL"}, {"measurement": "RI (resistance index)", "setting": "Lovo/DX [2]", "result": 44.8}]}, {"smiles": "CN(C)CCNc1ccc2c3c(nn2CCN(C)C)-c2cnccc2C(=O)c13", "values": [{"measurement": "IC50", "setting": "[1]; [12]", "result": 0.5, "unit": "µg/mL"}, {"measurement": "IC50", "setting": "Lovo/DX [2]; [13]", "result": 0.9, "unit": "µg/mL"}, {"measurement": "RI (resistance index)", "setting": "Lovo/DX [2]", "result": 1.8}]}, {"smiles": "O=C1c2c(O)cccc2-c2nn(CCNCCO)c3ccc(NCCNCCO)c1c23", "note": "[CI-941]", "values": [{"measurement": "neutropenia, W.H.O. grade", "setting": "[3]", "result": 4, "unit": "W.H.O. grade"}, {"measurement": "nephrotoxicity (in words)", "setting": "[4]", "result": "marked nephrotoxicity"}]}, {"smiles": "COc1cccc2c1C(=O)c1c(O)c3c(c(O)c1C2=O)C[C@@](O)(C(=O)CO)C[C@@H]3O[C@H]1C[C@H](N)[C@H](O)[C@H](C)O1", "note": "[DOXORUBICIN]", "values": [{"measurement": "IC50", "setting": "[1]; LoVo", "result": 0.9, "unit": "µg/mL"}, {"measurement": "IC50", "setting": "Lovo/DX [2]; [13]", "result": 66.6, "unit": "µg/mL"}, {"measurement": "RI (resistance index)", "setting": "Lovo/DX [2]", "result": 74}, {"measurement": "resistance / accumulation in Lovo/DX subline (in words)", "setting": "Lovo/DX [5]", "result": "resistant; also recorded: reduced accumulation"}]}, {"smiles": "O=C1c2c(O)ccc(O)c2C(=O)c2c(NCCNCCO)ccc(NCCNCCO)c21", "note": "[MITOXANTRONE, 5,8-dihydroxy-1,4-bis{[2-(2-hydroxyethylamino)ethyl]amino}anthracene-9,10-dione]", "values": [{"measurement": "IC50", "setting": "[1]; LoVo", "result": 0.04, "unit": "µg/mL"}, {"measurement": "IC50", "setting": "Lovo/DX [2]; LoVo/DX", "result": 0.9, "unit": "µg/mL"}, {"measurement": "cross resistance / resistance in Lovo/DX (in words)", "setting": "Lovo/DX [2]", "result": "acquired resistance"}, {"measurement": "clinical antitumor activity (in words)", "setting": "[6]", "result": "particularly promising activity in the treatment of advanced breast cancer, acute leukemia and lymphoma"}, {"measurement": "cardiotoxicity in animals (in words)", "setting": "[7]", "result": "diminished cardiotoxicity in comparison to doxorubicin"}, {"measurement": "clinical cardiotoxicity (in words)", "setting": "[8]", "result": "some clinical cardiotoxicity has been observed"}, {"measurement": "delayed toxicity (in words)", "setting": "[9]", "result": "delayed toxicity is observed only with mitoxantrone"}, {"measurement": "myelodepressive toxicity (in words)", "setting": "[10]", "result": "remarkable myelodepressive toxicity"}]}, {"smiles": "COc1cc([C@@H]2c3cc4c(cc3[C@@H](O[C@@H]3O[C@@H]5CO[C@@H](C)O[C@H]5[C@H](O)[C@H]3O)[C@H]3COC(=O)[C@H]23)OCO4)cc(OC)c1O", "note": "[VP-16]", "values": [{"measurement": "resistance / accumulation in Lovo/DX subline (in words)", "setting": "Lovo/DX [5]", "result": "resistant"}]}, {"smiles": "O=C1c2ccccc2C(=O)c2c(NCCNCCO)ccc(NCCNCCO)c21", "note": "[ametantrone, 1,4-bis{[2-(2-hydroxyethylamino)ethyl]amino}anthracene-9,10-dione]", "values": [{"measurement": "cross resistance / resistance in Lovo/DX (in words)", "setting": "Lovo/DX [2]", "result": "acquired resistance"}, {"measurement": "cardiotoxicity in animals (in words)", "setting": "[7]", "result": "less cardiotoxic than mitoxantrone"}, {"measurement": "potency relative to mitoxantrone (fold less potent)", "setting": "[7]; in animals", "result": "about 10 fold"}, {"measurement": "myelodepressive toxicity (in words)", "setting": "[10]", "result": "remarkable myelodepressive toxicity"}, {"measurement": "cross-resistance (in words)", "setting": "[11]", "result": "cross-resistance"}]}, {"smiles": "CC[C@]1(O)C[C@H]2CN(CCc3c([nH]c4ccccc34)[C@@](C(=O)OC)(c3cc4c(cc3OC)N(C=O)[C@H]3[C@@](O)(C(=O)OC)[C@H](OC(C)=O)[C@]5(CC)C=CCN6CC[C@]43[C@@H]65)C2)C1", "note": "[vincristine]", "values": [{"measurement": "resistance / accumulation in Lovo/DX subline (in words)", "setting": "Lovo/DX [5]", "result": "resistant"}]}]}
